Source: patent US7982043B2, “Protein tyrosine kinase enzyme inhibitors” (Wyeth LLC, priority 2003, dated 2011)
≈ marks a conversion by molar mass, not a printed value. Read-outs that look alike come from different tables or passages of the source. Values belong to the compound of their own block, whether it stands above or below them.

Experiments:
Format in all cases: cell-based
[1] = biological target: mouse fibroblast cell line transfected with the HER-2 oncogene (3T3/neu) (UniProt P04626, cells depend on it, species not given); experiment: Cell proliferation assay (SRB), 3T3/neu; conditions: for GI50: read-out: CELL IC50 3T3/NEU (converted)
[2] = system: A431 cells; experiment: Cell proliferation assay (SRB), A431; conditions: for IC50: Homo sapiens, A-431, 48 h, read-out: CELL IC50 A431
[3] = system: SK-Br-3 cells; experiment: Cell proliferation assay (SRB), SK-Br-3; conditions: EGFR −, Her-2 +++, 2 days, SRB; for IC50: Homo sapiens, SK-BR-3, 48 h, read-out: CELL IC50 SKBr3
[4] = system: MDA-MB-435 cells; experiment: Cell proliferation assay (SRB), MDA-MB-435; conditions: EGFR −, Her-2 −, 2 days, SRB; for IC50: Homo sapiens, MDA-MB-435, 48 h, read-out: CELL IC50 MDA-MB-435
[5] = system: SW620 cells; experiment: Cell proliferation assay (SRB), SW620; conditions: EGFR −, Her-2 −, 2 days, SRB; for IC50: Homo sapiens, SW-620, 48 h, read-out: CELL IC50 SW620

Compound: COc1cc2c(Nc3ccc4cn[nH]c4c3)c(C#N)cnc2cc1OCCCN1CCOCC1 [Example 34, 4-(1H-Indazol-6-ylamino)-6-methoxy-7-(3-morpholin-4-yl-propoxy)-quinoline-3-carbonitrile]
- GI50 ([1]; EGFR −, Her-2 +++, 2 days, SRB): > 10.9 µM
- IC50 ([2]; EGFR +++, Her-2 +, 2 days, SRB): > 5 µg/mL
- IC50 [3]: > 5 µg/mL
- IC50 [4]: > 5 µg/mL
- IC50 [5]: > 5 µg/mL

Compound: C=CC(=O)Nc1ccc2ncc(C#N)c(Nc3ccc(Sc4nccn4C)c(Cl)c3)c2c1 [Example 21, N-{4-[3-Chloro-4-(1-methyl-1H-imidazol-2-ylsulfanyl)-phenylamino]-3-cyano-quinolin-6-yl}-acrylamide]
- GI50 ([1]; EGFR −, Her-2 +++, 2 days, SRB): 1 µM
- IC50 ([2]; EGFR +++, Her-2 +, 2 days, SRB): 0.62 µg/mL (≈ 1.35 µM)
- IC50 [3]: 0.01 µg/mL (≈ 0.0217 µM)
- IC50 [4]: 4.57 µg/mL (≈ 9.91 µM)
- IC50 [5]: 1.84 µg/mL (≈ 3.99 µM)

Compound: COc1cc2ncc(C#N)c(Nc3ccc(Sc4nc5ccccc5c(=O)[nH]4)c(Cl)c3)c2cc1NC(=O)/C=C/CN(C)C [Example 46]
- CELL IC50 3T3/NEU ([1]; mouse fibroblast cell line transfected with the her-2 oncogene (3t3/neu)): 0.15 µg/mL
- CELL IC50 A431 ([2]; EGFR +++, Her-2 +, 2 days, SRB): 0.34 µg/mL
- CELL IC50 SKBr3 [3]: 0.06 µg/mL
- CELL IC50 MDA-MB-435 [4]: >5 µg/mL
- CELL IC50 SW620 [5]: >5 µg/mL

Compound: COc1cc2ncc(C#N)c(Nc3ccc(Sc4nccn4C)c(Cl)c3)c2cc1[N+](=O)[O-] [Example 35, 4-({3-chloro-4-[(1-methyl-1H-imidazol-2-yl)sulfanyl]phenyl}amino)-7-methoxy-6-nitro-3-quinolinecarbonitrile]
- GI50 ([1]; EGFR −, Her-2 +++, 2 days, SRB): 8.76 µM
- IC50 ([2]; EGFR +++, Her-2 +, 2 days, SRB): 2.88 µg/mL (≈ 6.17 µM)
- IC50 [3]: 0.669 µg/mL (≈ 1.43 µM)
- IC50 [4]: 1 µg/mL (≈ 2.14 µM)
- IC50 [5]: 1.55 µg/mL (≈ 3.32 µM)

Compound: CCOc1cc2ncc(C#N)c(Nc3ccc(Oc4ccncc4)c(Cl)c3)c2cc1NC(=O)/C=C/CN(C)C [Example 56, (E)-N-{4-[3-chloro-4-(4-pyridinyloxy)anilino]-3-cyano-7-ethoxy-6-quinolinyl}-4-(dimethylamino)-2-butenamide]
- GI50 ([1]; EGFR −, Her-2 +++, 2 days, SRB): > 9.21 µM
- IC50 [2]: 3.27 µg/mL (≈ 6.02 µM)
- IC50 [3]: 1.51 µg/mL (≈ 2.78 µM)
- IC50 [4]: 2.06 µg/mL (≈ 3.79 µM)
- IC50 [5]: > 5 µg/mL

Compound: CCOc1cc2ncc(C#N)c(Nc3ccc(Cn4ccnc4)c(Cl)c3)c2cc1NC(=O)/C=C/CN(C)C [Example 62, (E)-N-{4-[3-chloro-4-(1H-imidazol-1-ylmethyl)anilino]-3-cyano-7-ethoxy-6-quinolinyl}-4-(dimethylamino)-2-butenamide]
- GI50 ([1]; EGFR −, Her-2 +++, 2 days, SRB): 1.87 µM
- IC50 [2]: 0.95 µg/mL (≈ 1.79 µM)
- IC50 [3]: 0.045 µg/mL (≈ 0.0849 µM)
- IC50 [4]: 2.1 µg/mL (≈ 3.96 µM)
- IC50 [5]: 3.8 µg/mL (≈ 7.17 µM)

Compound: CCOc1cc2ncc(C#N)c(Nc3ccc4cc[nH]c4c3)c2cc1OCC [Example 22, 6,7-Diethoxy-4-(1H-indol-6-ylamino)-quinoline-3-carbonitrile]
- GI50 ([1]; EGFR −, Her-2 +++, 2 days, SRB): 2.51 µM
- IC50 ([2]; EGFR +++, Her-2 +, 2 days, SRB): 0.123 µg/mL (≈ 0.33 µM)
- IC50 [3]: 0.0374 µg/mL (≈ 0.1 µM)
- IC50 [4]: 0.365 µg/mL (≈ 0.98 µM)
- IC50 [5]: 0.286 µg/mL (≈ 0.768 µM)

Compound: (E)-N-{4-[3-chloro-4-(1H-imidazol-1-yl)anilino]-3-cyano-7-methoxy-6-quinolinyl}-azol-1-yl)anilino]-4-(dimethylamino)-2-)anilino-2-butenamide [Example 43]
- CELL IC50 3T3/NEU ([1]; EGFR −, Her-2 +++, 2 days, SRB): 1.46 µg/mL
- CELL IC50 A431 ([2]; EGFR +++, Her-2 +, 2 days, SRB): 0.51 µg/mL
- CELL IC50 SKBr3 [3]: 0.32 µg/mL
- CELL IC50 MDA-MB-435 [4]: 0.57 µg/mL
- CELL IC50 SW620 [5]: 1.45 µg/mL

The next lines start with the values.

- GI50 ([1]; EGFR −, Her-2 +++, 2 days, SRB): 2.43 µM
- IC50 ([2]; EGFR +++, Her-2 +, 2 days, SRB): 3.04 µg/mL (≈ 6.96 µM)
- IC50 [3]: 0.011 µg/mL (≈ 0.0252 µM)
- IC50 [4]: 0.39 µg/mL (≈ 0.893 µM)
- IC50 [5]: 3.16 µg/mL (≈ 7.23 µM)
Compound: COc1cc2ncc(C#N)c(Nc3ccc(Sc4nccn4C)c(Cl)c3)c2cc1N [Example 36, 6-amino-4-({3-chloro-4-[(1-methyl-1H-imidazol-2-yl)sulfanyl]phenyl}amino)-7-methoxy-3-quinolinecarbonitrile]

- GI50 ([1]; EGFR −, Her-2 +++, 2 days, SRB): 8.74 µM
- IC50 ([2]; EGFR +++, Her-2 +, 2 days, SRB): 1.6 µg/mL (≈ 3.47 µM)
- IC50 [3]: 0.726 µg/mL (≈ 1.58 µM)
- IC50 [4]: 1.87 µg/mL (≈ 4.06 µM)
- IC50 [5]: 3.21 µg/mL (≈ 6.96 µM)
Compound: COc1cc2ncc(C#N)c(Nc3ccc(NCc4cccnc4)c(Cl)c3)c2cc1[N+](=O)[O-] [Example 57, 4-{3-chloro-4-[(3-pyridinylmethyl)amino]anilino}-7-methoxy-6-nitro-3-quinolinecarbonitrile]

- GI50 ([1]; EGFR −, Her-2 +++, 2 days, SRB): > 9.86 µM
- IC50 ([2]; EGFR +++, Her-2 +, 2 days, SRB): > 5 µg/mL
- IC50 [3]: > 5 µg/mL
- IC50 [4]: 4.1 µg/mL (≈ 8.09 µM)
- IC50 [5]: > 5 µg/mL
Compound: CCOc1cc2ncc(C#N)c(Nc3ccc(Sc4nc(C)cc(C)n4)c(Cl)c3)c2cc1[N+](=O)[O-] [Example 74, 4-{3-chloro-4-[(4,6-dimethyl-2-pyrimidinyl)sulfanyl]anilino}-7-ethoxy-6-nitro-3-quinolinecarbonitrile]

- GI50 ([1]; EGFR −, Her-2 +++, 2 days, SRB): 0.622 µM
- IC50 ([2]; EGFR +++, Her-2 +, 2 days, SRB): 0.3 µg/mL (≈ 0.445 µM)
- IC50 [3]: > 5 µg/mL
- IC50 [4]: 0.3 µg/mL (≈ 0.445 µM)
- IC50 [5]: 0.6 µg/mL (≈ 0.889 µM)
Compound: CCOc1cc2ncc(C#N)c(Nc3ccc(Sc4nc(-c5ccccc5)cs4)c(C(F)(F)F)c3)c2cc1NC(=O)/C=C/CN(C)C [Example 69, (E)-N-{3-cyano-7-ethoxy-4-[4-[(4-phenyl-1,3-thiazol-2-yl)sulfanyl]-3-(trifluoromethyl)anilino]-6-quinolinyl}-4-(dimethylamino)-2-butenamide]

- GI50 ([1]; EGFR −, Her-2 +++, 2 days, SRB): 4.47 µM
- IC50 ([2]; EGFR +++, Her-2 +, 2 days, SRB): > 5 µg/mL
- IC50 [3]: 0.943 µg/mL (≈ 1.67 µM)
- IC50 [4]: 2.5 µg/mL (≈ 4.44 µM)
- IC50 [5]: 3.1 µg/mL (≈ 5.5 µM)
Compound: CCOc1cc2ncc(C#N)c(Nc3ccc(Sc4nc(-c5ccccc5)cs4)c(C(F)(F)F)c3)c2cc1N [Example 68, 6-Amino-7-ethoxy-4-[4-(4-phenyl-thiazol-2-ylsulfanyl)-3-trifluoromethyl-phenylamino]-quinoline-3-carbonitrile]

- GI50 ([1]; EGFR −, Her-2 +++, 2 days, SRB): 0.0312 µM
- IC50 ([2]; EGFR +++, Her-2 +, 2 days, SRB): 0.24 µg/mL (≈ 0.374 µM)
- IC50 [3]: 0.006 µg/mL (≈ 0.00936 µM)
- IC50 [4]: 0.18 µg/mL (≈ 0.281 µM)
- IC50 [5]: 0.54 µg/mL (≈ 0.842 µM)
Compound: CCOc1cc2ncc(C#N)c(Nc3ccc(Sc4nc(-c5ccccc5)cs4)c(Cl)c3)c2cc1NC(=O)/C=C/CN(C)C [Example 72, (E)-N-(4-{3-chloro-4-[(4-phenyl-1,3-thiazol-2-yl)sulfanyl]anilino}-3-cyano-7-ethoxy-6-quinolinyl)-4-(dimethylamino)-2-butenamide]

- GI50 ([1]; EGFR −, Her-2 +++, 2 days, SRB): 0.017 µM
- IC50 ([2]; EGFR +++, Her-2 +, 2 days, SRB): 0.24 µg/mL (≈ 0.408 µM)
- IC50 [3]: 0.006 µg/mL (≈ 0.0102 µM)
- IC50 [4]: 0.2 µg/mL (≈ 0.34 µM)
- IC50 [5]: 0.32 µg/mL (≈ 0.544 µM)
Compound: CCOc1cc2ncc(C#N)c(Nc3ccc(Sc4nc(C)cc(C)n4)c(Cl)c3)c2cc1NC(=O)/C=C/CN(C)C [Example 66, (E)-N-(4-{3-chloro-4-[(4,6-dimethyl-2-pyrimidinyl)sulfanyl]anilino}-3-cyano-7-ethoxy-6-quinolinyl)-4-(dimethylamino)-2-butenamide]

- GI50 ([1]; EGFR −, Her-2 +++, 2 days, SRB): 0.00523 µM
- IC50 ([2]; EGFR +++, Her-2 +, 2 days, SRB): 0.12 µg/mL (≈ 0.209 µM)
- IC50 [3]: 0.001 µg/mL (≈ 0.00174 µM)
- IC50 [4]: 0.3 µg/mL (≈ 0.523 µM)
- IC50 [5]: 0.2 µg/mL (≈ 0.348 µM)
Compound: CCOc1cc2ncc(C#N)c(Nc3ccc(Sc4nccc(C)n4)c(Cl)c3)c2cc1NC(=O)/C=C/CN(C)C [Example 65, (E)-N-(4-{3-chloro-4-[(4-methyl-2-pyrimidinyl)sulfanyl]anilino}-3-cyano-7-ethoxy-6-quinolinyl)-4-(dimethylamino)-2-butenamide]

- CELL IC50 3T3/NEU ([1]; EGFR −, Her-2 +++, 2 days, SRB): >5 µg/mL
- CELL IC50 A431 ([2]; EGFR +++, Her-2 +, 2 days, SRB): 3.68 µg/mL
- CELL IC50 SKBr3 [3]: 3.94 µg/mL
- CELL IC50 MDA-MB-435 [4]: >5 µg/mL
- CELL IC50 SW620 [5]: >5 µg/mL
Compound: COc1cc2ncc(C#N)c(Nc3ccc(N(Cc4cccnc4)C(C)=O)c(Cl)c3)c2cc1NC(C)=O [Example 50]

- CELL IC50 3T3/NEU ([1]; EGFR −, Her-2 +++, 2 days, SRB): 1.88 µg/mL
- CELL IC50 A431 ([2]; EGFR +++, Her-2 +, 2 days, SRB): 1.22 µg/mL
- CELL IC50 SKBr3 [3]: 2.15 µg/mL
- CELL IC50 MDA-MB-435 [4]: 4.58 µg/mL
- CELL IC50 SW620 [5]: 4.66 µg/mL
Compound: COc1cc2ncc(C#N)c(Nc3ccc(Sc4nc5ccccc5c(=O)[nH]4)c(Cl)c3)c2cc1N [Example 45]

- GI50 ([1]; EGFR −, Her-2 +++, 2 days, SRB): 4.44 µM
- IC50 ([2]; EGFR +++, Her-2 +, 2 days, SRB): 0.76 µg/mL (≈ 1.59 µM)
- IC50 [3]: 0.98 µg/mL (≈ 2.05 µM)
- IC50 [4]: 1.3 µg/mL (≈ 2.73 µM)
- IC50 [5]: 1.36 µg/mL (≈ 2.85 µM)
Compound: CCOc1cc2ncc(C#N)c(Nc3ccc(Sc4nc(C)cc(C)n4)c(Cl)c3)c2cc1N [Example 75, 6-amino-4-{3-chloro-4-[(4,6-dimethyl-2-pyrimidinyl)sulfanyl]anilino}-7-ethoxy-3-quinolinecarbonitrile]
